Test results from PMC10763615, “Identification and engineering of potent cyclic peptides with selective or promiscuous binding through biochemical profiling and bioinformatic data analysis” (RSC Chemical Biology, 2023).
Where two headings read alike, the source gives them in different places. Positions of bridges follow the written chain, without caps; N, C: chain ends. Residues, ends and D or L forms follow the SMILES beside them.

What was measured:
Assay type in all cases: binding
[1] = molecular target: T1, FGF-R1C ECD (Homo sapiens, UniProt P11362); test: biochemical; parameters: DNA constructs for the extracellular domain (ECD) of human FGF-; HPC4 (C); made in house; host or cells: HEK 293-6E
T1 sequence (P11362 22-376 limits assumed): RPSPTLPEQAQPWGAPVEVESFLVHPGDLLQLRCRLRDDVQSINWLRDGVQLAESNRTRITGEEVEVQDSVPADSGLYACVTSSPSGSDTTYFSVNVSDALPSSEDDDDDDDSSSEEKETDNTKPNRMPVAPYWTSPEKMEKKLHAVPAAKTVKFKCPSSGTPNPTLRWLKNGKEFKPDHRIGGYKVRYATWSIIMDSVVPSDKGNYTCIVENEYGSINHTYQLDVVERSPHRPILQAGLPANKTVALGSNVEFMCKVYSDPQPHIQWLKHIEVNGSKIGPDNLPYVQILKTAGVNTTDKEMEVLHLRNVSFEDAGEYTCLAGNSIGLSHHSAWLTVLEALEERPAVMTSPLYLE
Summary of the method: (§1)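 BLI, streptavidin sensors loaded with biotinylated receptor ECD. Single-point: ~1 μM crude peptide, PBS pH7.4/0.05% Tween-20/0.01% BSA; association then dissociation in buffer. KD corrected for UPLC-CAD-determined concentration.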

[2] = molecular target: T2, FGF-R3C ECD (Homo sapiens, UniProt P22607); test: biochemical; parameters: DNA constructs for the extracellular domain (ECD) of human FGF-; HPC4 (C); made in house; host or cells: HEK 293-6E
T2 sequence (P22607 23-375 limits assumed): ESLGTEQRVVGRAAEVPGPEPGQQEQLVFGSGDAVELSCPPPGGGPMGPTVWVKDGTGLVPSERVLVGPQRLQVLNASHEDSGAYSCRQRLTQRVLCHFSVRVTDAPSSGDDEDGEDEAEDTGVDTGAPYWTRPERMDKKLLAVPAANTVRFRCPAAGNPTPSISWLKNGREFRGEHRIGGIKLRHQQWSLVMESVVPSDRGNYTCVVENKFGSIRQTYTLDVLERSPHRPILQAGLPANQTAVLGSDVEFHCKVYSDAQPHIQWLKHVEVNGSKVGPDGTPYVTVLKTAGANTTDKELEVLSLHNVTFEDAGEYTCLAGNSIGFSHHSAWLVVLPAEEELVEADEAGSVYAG
Summary of the method: as §1

[3] = molecular target: T3, FGF-R4 ECD (Homo sapiens, UniProt P22455); test: single concentration BLI of crude peptides; conditions: read-out: KD (4)
T3 construct: DNA constructs for the extracellular domain (ECD) of human FGF-; HPC4 (C); made in house; host or cells: HEK 293-6E
T3 sequence (P22455 22-369 limits assumed): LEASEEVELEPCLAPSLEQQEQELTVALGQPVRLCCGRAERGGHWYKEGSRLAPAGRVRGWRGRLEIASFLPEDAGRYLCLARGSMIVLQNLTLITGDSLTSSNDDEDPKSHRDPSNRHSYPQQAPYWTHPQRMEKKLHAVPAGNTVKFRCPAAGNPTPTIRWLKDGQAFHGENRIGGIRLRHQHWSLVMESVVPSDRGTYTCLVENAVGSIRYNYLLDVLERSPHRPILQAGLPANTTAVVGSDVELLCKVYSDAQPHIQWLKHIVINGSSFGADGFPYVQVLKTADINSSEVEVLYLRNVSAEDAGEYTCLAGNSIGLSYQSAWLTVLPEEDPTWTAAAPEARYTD
Summary of the method: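 Streptavidin biosensors carrying biotinylated FGF receptor ECD were immersed in peptide (~1 μM for crude single-point runs, a concentration series for purified peptides) and then in peptide-free buffer. KD was obtained by fitting the BLI association and dissociation curves.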

[4] = crude T18 selection 1 (1:1:1) peptides, single concentration BLI (Table S4)

| Compound | Kd [1] [nM] | Kd [2] [µM] | Kd [3, 4] [nM] | Kd ([3]; crude NNK peptides, single concentration BLI (Table S3)) [nM] |
| --- | --- | --- | --- | --- |
| CSCC[C@H](NC(C)=O)C(=O)N[C@H]1CSSC[C@@H](C(=O)NCC(=O)N[C@@H](CO)C(=O)NCC(=O)N[C@@H](CO)C(=O)N[C@@H](CC(=O)O)C(=O)N[C@@H](Cc2ccc(O)cc2)C(=O)N[C@@H](CCCCN)C(=O)N[C@@H](CC(=O)O)C(=O)N[C@@H](CC(=O)O)C(=O)N[C@@H](CC(=O)O)C(=O)N[C@@H](CC(=O)O)C(=O)N[C@@H](CCCCN)C(N)=O)NC(=O)[C@H](CCC(N)=O)NC(=O)[C@H](CCC(=O)O)NC(=O)[C@H](Cc2c[nH]c3ccccc23)NC(=O)[C@H](Cc2c[nH]cn2)NC(=O)CNC(=O)[C@H](Cc2ccc(O)cc2)NC(=O)[C@@H]2CCCN2C(=O)[C@H](Cc2c[nH]cn2)NC(=O)[C@H](CCCNC(=N)N)NC(=O)[C@H](Cc2c[nH]cn2)NC(=O)[C@H](CCC(=O)O)NC1=O (Ac-MCEHRHPYGHWEQCGSGSDYKDDDDK-NH2; disulfide 2-14) | > 10000 | > 10 | > 10000 | – |
| CC[C@H](C)[C@@H]1NC(=O)[C@H](Cc2c[nH]cn2)NC(=O)[C@H](CCCCN)NC(=O)[C@H](Cc2ccc(O)cc2)NC(=O)[C@@H](NC(=O)[C@H](CCSC)NC(C)=O)CSSC[C@@H](C(=O)NCC(=O)N[C@@H](CO)C(=O)NCC(=O)N[C@@H](CO)C(=O)N[C@@H](CCC(=O)O)C(=O)N[C@@H](CCC(=O)O)C(=O)NCC(=O)N[C@@H](CO)C(=O)NCC(=O)N[C@@H](CO)C(=O)N[C@@H](CC(=O)O)C(=O)N[C@@H](Cc2ccc(O)cc2)C(=O)N[C@@H](CCCCN)C(=O)N[C@@H](CC(=O)O)C(=O)N[C@@H](CC(=O)O)C(=O)N[C@@H](CC(=O)O)C(=O)N[C@@H](CC(=O)O)C(=O)N[C@@H](CCCCN)C(N)=O)NC(=O)[C@H](CC(C)C)NC(=O)[C@H](CCCCN)NC(=O)[C@H](CCC(N)=O)NC(=O)[C@H]([C@@H](C)CC)NC(=O)[C@H](CCCCN)NC(=O)[C@H](Cc2ccc(O)cc2)NC(=O)[C@H](Cc2c[nH]c3ccccc23)NC(=O)[C@H](CC(C)C)NC1=O (Ac-MCYKHILWYKIQKLCGSGSEEGSGSDYKDDDDK-NH2; disulfide 2-15) | 33 | > 10 | 1 | – |
| CC[C@H](C)[C@@H]1NC(=O)[C@@H]2CCCN2C(=O)[C@H](Cc2c[nH]c3ccccc23)NC(=O)[C@H](Cc2ccccc2)NC(=O)[C@@H](NC(=O)[C@H](CCSC)NC(C)=O)CSSC[C@@H](C(=O)NCC(=O)N[C@@H](CO)C(=O)NCC(=O)N[C@@H](CO)C(=O)N[C@@H](CC(=O)O)C(=O)N[C@@H](Cc2ccc(O)cc2)C(=O)N[C@@H](CCCCN)C(=O)N[C@@H](CC(=O)O)C(=O)N[C@@H](CC(=O)O)C(=O)N[C@@H](CC(=O)O)C(=O)N[C@@H](CC(=O)O)C(=O)N[C@@H](CCCCN)C(N)=O)NC(=O)[C@H](C)NC(=O)[C@H](CCSC)NC(=O)[C@H](Cc2ccccc2)NC(=O)[C@H](CCCCN)NC(=O)[C@H](Cc2ccc(O)cc2)NC(=O)[C@H](Cc2c[nH]c3ccccc23)NC1=O (Ac-MCFWPIWYKFMACGSGSDYKDDDDK-NH2; disulfide 2-13) | > 10000 | > 10 | – | > 10000 |
| CC[C@H](C)[C@@H]1NC(=O)[C@H]([C@@H](C)O)NC(=O)[C@H](C(C)C)NC(=O)[C@H](Cc2ccc(O)cc2)NC(=O)[C@H](Cc2c[nH]c3ccccc23)NC(=O)[C@H](CC(=O)O)NC(=O)[C@@H](NC(=O)[C@H](CCSC)NC(C)=O)CSSC[C@@H](C(=O)NCC(=O)N[C@@H](CO)C(=O)NCC(=O)N[C@@H](CO)C(=O)N[C@@H](CC(=O)O)C(=O)N[C@@H](Cc2ccc(O)cc2)C(=O)N[C@@H](CCCCN)C(=O)N[C@@H](CC(=O)O)C(=O)N[C@@H](CC(=O)O)C(=O)N[C@@H](CC(=O)O)C(=O)N[C@@H](CC(=O)O)C(=O)N[C@@H](CCCCN)C(N)=O)NC(=O)[C@H](CCCCN)NC(=O)[C@H](CCCCN)NC(=O)[C@H](CC(C)C)NC(=O)[C@H](C(C)C)NC(=O)[C@H](CCCCN)NC(=O)[C@H](Cc2ccc(O)cc2)NC1=O (Ac-MCDWYVTIYKVLKKCGSGSDYKDDDDK-NH2; disulfide 2-15) | > 10000 | > 10 | 8 | – |
| CC[C@H](C)[C@@H]1NC(=O)[C@H](CCCCN)NC(=O)[C@H](Cc2ccccc2)NC(=O)[C@H](Cc2ccccc2)NC(=O)[C@H](Cc2c[nH]cn2)NC(=O)[C@H]([C@@H](C)CC)NC(=O)[C@@H]2CCCN2C(=O)[C@@H](NC(=O)[C@H](CCSC)NC(C)=O)CSSC[C@@H](C(=O)NCC(=O)N[C@@H](CO)C(=O)NCC(=O)N[C@@H](CO)C(=O)N[C@@H](CCC(=O)O)C(=O)N[C@@H](CCC(=O)O)C(=O)NCC(=O)N[C@@H](CO)C(=O)NCC(=O)N[C@@H](CO)C(=O)N[C@@H](CC(=O)O)C(=O)N[C@@H](Cc2ccc(O)cc2)C(=O)N[C@@H](CCCCN)C(=O)N[C@@H](CC(=O)O)C(=O)N[C@@H](CC(=O)O)C(=O)N[C@@H](CC(=O)O)C(=O)N[C@@H](CC(=O)O)C(=O)N[C@@H](CCCCN)C(N)=O)NC(=O)[C@H](Cc2c[nH]cn2)NC(=O)[C@H](CCCNC(=N)N)NC(=O)[C@H](Cc2ccc(O)cc2)NC(=O)[C@H](C(C)C)NC1=O (Ac-MCPIHFFKIVYRHCGSGSEEGSGSDYKDDDDK-NH2; disulfide 2-14) | 10 | > 10 | 10 | – |
| CSCC[C@H](NC(C)=O)C(=O)N[C@H]1CSSC[C@@H](C(=O)NCC(=O)N[C@@H](CO)C(=O)NCC(=O)N[C@@H](CO)C(=O)N[C@@H](CC(=O)O)C(=O)N[C@@H](Cc2ccc(O)cc2)C(=O)N[C@@H](CCCCN)C(=O)N[C@@H](CC(=O)O)C(=O)N[C@@H](CC(=O)O)C(=O)N[C@@H](CC(=O)O)C(=O)N[C@@H](CC(=O)O)C(=O)N[C@@H](CCCCN)C(N)=O)NC(=O)[C@H](Cc2c[nH]c3ccccc23)NC(=O)[C@H](CC(C)C)NC(=O)[C@H](CCCNC(=N)N)NC(=O)[C@H](Cc2ccc(O)cc2)NC(=O)[C@H](CC(C)C)NC(=O)[C@H](Cc2c[nH]c3ccccc23)NC(=O)[C@H](CC(C)C)NC(=O)[C@H](CC(=O)O)NC(=O)[C@H](CCCCN)NC(=O)[C@H](CO)NC(=O)[C@H](Cc2ccc(O)cc2)NC(=O)[C@H](CCCCN)NC(=O)[C@H](Cc2ccc(O)cc2)NC1=O (Ac-MCYKYSKDLWLYRLWCGSGSDYKDDDDK-NH2; disulfide 2-16) | 502 | > 10 | 22 | – |
| CSCC[C@H](NC(C)=O)C(=O)N[C@H]1CSSC[C@@H](C(=O)NCC(=O)N[C@@H](CO)C(=O)NCC(=O)N[C@@H](CO)C(=O)N[C@@H](CC(=O)O)C(=O)N[C@@H](Cc2ccc(O)cc2)C(=O)N[C@@H](CCCCN)C(=O)N[C@@H](CC(=O)O)C(=O)N[C@@H](CC(=O)O)C(=O)N[C@@H](CC(=O)O)C(=O)N[C@@H](CC(=O)O)C(=O)N[C@@H](CCCCN)C(N)=O)NC(=O)[C@H](CC(C)C)NC(=O)[C@H](CCCNC(=N)N)NC(=O)[C@H](CCC(=O)O)NC(=O)[C@H](Cc2c[nH]c3ccccc23)NC(=O)[C@H](Cc2ccc(O)cc2)NC(=O)[C@H](Cc2ccccc2)NC(=O)[C@H](CO)NC(=O)[C@H](Cc2c[nH]cn2)NC(=O)[C@H](CCC(N)=O)NC(=O)[C@H](CC(=O)O)NC(=O)[C@H](Cc2ccc(O)cc2)NC(=O)[C@H](Cc2c[nH]c3ccccc23)NC1=O (Ac-MCWYDQHSFYWERLCGSGSDYKDDDDK-NH2; disulfide 2-15) | > 10000 | > 10 | > 10000 | – |
